Several values for one entry are separate records, joined by “and”; a condition that tells them apart may be missing. Equal entries are not always repeated.

The target of series [1] is T1, CCKBRs in the motor cortex (Mus musculus, UniProt P56481).
T1 construct: from tissue; host or cells: motor cortex of living C57BL/6 mice
T1 sequence (P56481 1-453): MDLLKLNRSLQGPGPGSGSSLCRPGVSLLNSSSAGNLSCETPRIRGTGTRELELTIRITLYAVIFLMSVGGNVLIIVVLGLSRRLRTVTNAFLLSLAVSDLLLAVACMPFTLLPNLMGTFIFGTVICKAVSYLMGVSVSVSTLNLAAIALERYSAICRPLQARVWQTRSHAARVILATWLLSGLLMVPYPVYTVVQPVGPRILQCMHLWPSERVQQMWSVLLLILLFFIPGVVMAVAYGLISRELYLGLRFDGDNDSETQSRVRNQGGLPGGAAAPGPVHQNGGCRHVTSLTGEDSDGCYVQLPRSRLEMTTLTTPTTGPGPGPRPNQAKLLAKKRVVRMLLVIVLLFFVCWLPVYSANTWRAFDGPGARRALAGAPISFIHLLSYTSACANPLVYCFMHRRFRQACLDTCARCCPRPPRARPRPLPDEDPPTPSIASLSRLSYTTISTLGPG
Nature of the series: Single pellet reaching task with CCKBR antagonist injected into the motor cortex. As to conditions: for success rate: 1 μl 20 μM into motor cortex via cannula before training. The class given is in vivo, C57BL/6 mice. The protocol: (§1) The task has two periods, shaping and training. […] Only attempts by the dominant hand are counted.
C57BL/6 mice are implanted a cannula in the motor cortex (coordinates: AP, 1.4 mm, ML, −/+1.6 mm, DV, 0.2 mm) contralateral to the dominant hand of the mice, followed by three days of recovery. Mice are grouped into antagonist and vehicle groups. L365,260 (CCKBR antagonist) (1 μl, 20 μM, Cat #2767, Bio-Techne, https://www.bio-techne.com/, USA) or vehicle (0.1% DMSO dissolved in ACSF) is injected into the motor cortex through the cannula with the flow rate of 100 nl/min pumped by a syringe pump (Hamilton, http://hamiltoninstrument.com, USA), before the mice are placed into the chamber for the single pellet reaching task training.

The subject of series [2] is neurons in the motor cortex layer 2/3. The series can be described thus: Calcium imaging of layer 2/3 of the motor cortex during single pellet reaching task training. It is filed as in vivo, C57BL/6 mice. As to conditions: for activated population activity (peak activity minus baseline activity): C57BL/6 mice injected with L365,260 (0.4 mg/kg i.p.); for pairwise Hausdorff distance of trajectories / trial-to-trial population activity correlation (Pearson correlation coefficient): C57BL/6 mice injected with L365,260. The protocol:
as §1
The surface virus infusion process for the calcium imaging is performed as described previously with mild modification^5. A wide-tip glass pipette is prepared by a micropipette puller and then cut, polished, and flame-treated to make it even and smooth. Mice are […] injected with dexamethasone (0.2 mg/kg, s.c.) and carprofen (5 mg/kg, s.c.) to protect the brain from swelling and inflammation. Three hours later, mice are anesthetized with pentobarbital. The periosteum covered on the skull is removed, cleaned, and dried with 100% alcohol to prevent the skull and tissues from growing. A 3×3 mm^2 window above the motor cortex contralateral to the dominant hand is opened with a hand drill, and the bone debris is carefully removed with fine forceps. After that, the dura around the injection area is removed (open a dura hole of about 1 mm^2) to expose the pial tissue for virus infusion. The tip of the pipette tightly covered the brain surface by lowering 400-500 μm, and 0.6 μl virus is infused at the speed of 0.06 μl/min. A 3×3 cover glass (thickness, around 150 μm) is attached to the brain surface, and gentle pressure is applied to keep the cover glass at the level same as the skull. The edge of the cover glass is sealed with superglue. After the glue is totally hardened, the skin is stretched back and sutured.
2-3 weeks after cranial window implantation, the scalp over the skull is totally removed with surgical scissors. […] The cover glass surface is gently cleaned with Ringer's solution and lens paper, and the regrowth of periosteum on the skull is removed with fine forceps. Before baseplate implantation, the skull is dried with 100% alcohol, covered with Metbondglue, and a thick layer of dental acrylic except for the cover glass for observation.
The LED is turned on and the focal distance of the electrowetting lens is adjusted to 0 on the software. The position of the miniscope is adjusted until the brain tissue is observed in the data acquisition system. Dental acrylic is used to fix the baseplate to the acrylic cap covering the skull around the window. Once the dental acrylic has hardened, the miniscope is removed, and a metal cap is attached to the baseplate to protect the cover glass window.
After the implantation of the baseplate, a miniscope model is attached to the baseplate, and the mouse is placed in the chamber to acclimate to the weight of the miniscope for 20 minutes for 3 days. The LED laser and focal plate are slightly adjusted until the cells with fluorescent protruded from the background. A web camera is also connected to the data acquisition software and recorded the behavior movement of the animal simultaneously. An imaging field of about 1.0×1.0 mm^2 (resolution: 608×608 pixels) video at approximately 10 min long is recorded. To clearly figure out the role of CCK played in the neuronal plasticity of the motor cortex from CCK^−/− mice, C57BL/6 mice as well as C57BL/6 mice that intraperitoneal injection of CCKBR antagonist, L365,260 (0.4 mg/kg, Cat #2767, Bio-Techne, https://www.bio-techne.com, USA). Raw AVI videos are firstly spatially down-sample by two folds to reduce the size of the videos by Fiji (Image J, https://imagej.net/imagej-wiki-static/Fiji/Downloads, USA). Then a MATLAB algorithm, NoRMCorre, is applied for piecewise rigid motion correction before data analysis. The calcium signals are extracted with the MATLAB code of Constrained Nonnegative Matrix Factorization for microEndoscopic (CNMF-E) (code availability: https://github.com/zhoupc/CNMF_E) 6. The scaled fluorescent calcium signal overtime is extracted as C_raw. The raw data is then deconvolved. […] Timestamps from both the behavior videos and the calcium imaging videos are aligned to find out the time window when the mouse perform the reaching task. […]

The subject of series [3] is motor cortex brain slices from the CCK^−/− mice. The series can be described thus: Brain slice electrophysiology, fEPSP/LTP after HFS in motor cortex slices. The class given is cell-based. As to conditions: CCK4 500 nM, % of baseline. The protocol: The slice electrophysiology experiment is carried out following the methods reported previously^9. In the experiments, 6-8 weeks old C57BL/6 or CCK^−/− mice are anesthetized with isoflurane in a small chamber. The mouse head is cut, and the brain is rapidly removed and put into an oxygenated (95% O2-5% CO2) artificial cerebral spinal fluid (ACSF) cold bath containing 26 mM of NaHCO3, 2 mM of CaCl2), 1.25 mM of KH2PO4, 1.25 mM of MgSO4, 124 mM of NaCl, 3 mM of KCl and 10 mM of glucose, pH 7.35-7.45. The brain is sectioned from the middle line into two hemispheres. The portions with the brain areas of the motor cortex are trimmed and glued on the ice-cold stage of a vibrating tissue slicer (VT1000S, Leica, https://www.gmi-inc.com/product/leica-vt1000s-microtome, Germany). Coronal sections of slices containing the motor cortex (300 μm thick) are trimmed and gently transferred into an ACSF containing chamber, which is put in a water bath at 28° C. and oxygen blowing continuously. […]
After recovery, the motor cortex slice is covered by the recording electrodes. […] The electrophysiological data are extracted and analyzed with offline software, Mobius software. For quantification of the LTP data, the initial amplitudes of fEPSPs are normalized and expressed as percentage changes over the averaged baseline activity. […]

The test system of series [4] is CCK^−/− mice. Nature of the series: Rescue of motor learning ability of CCK^−/− mice with CCK4, single pellet reaching task. It is filed as in vivo. The note with it: for success rate: CCK4 0.45 mg/kg i.p. every day before training; for miss rate: CCK4 0.45 mg/kg i.p.
Source text: as §1
CCK4, a tetrapeptide derived from the peptide of CCK is selected as a potential drug to rescue the motor learning defect caused by the lack of CCK, because CCK4 remains the function to activate the CCK receptor but has a much smaller molecule than CCK8s or CCK58, making it transmit through the brain-blood barrier easily and smoothly^10-11. Therefore, intraperitoneal injection of the CCK4 is a simple and easily available way to rescue CCK lack caused motor learning defects. After shaping, CCK^−/− mice are injected intraperitoneally with CCK4 (0.45 mg/kg, Cat #ab141328, Abcam, https://securedrtest.abcam.com, UK) or vehicle before training every day.

As for `Cc1cccc(NC(=O)N[C@@H]2N=C(c3ccccc3)c3ccccc3N(C)C2=O)c1` [L365,260], the success rate in series [1] (Day 3) is given as 16.80±2.83%. In series [1] (Day 4), this molecule yielded a success rate of 18.16±3.12%. Further, the “success rate of pellet retrieval, change through the 6-day training period” value in series [1] (infused into motor cortex every day before training) is given as “not improved”. Further, the “drop rate, change Day 1 vs. Day 5” value in series [1] (motor cortex injection) is “no significant changes”. In addition, in series [1] (motor cortex injection, Day 1), the miss rate is 27.34%±9.85%. Besides, the “number of miss, change with learning” value in series [1] (motor cortex injection, Day 1 vs. Day 5) is reported as “no significant decrease”. In addition, in series [1] (motor cortex injection, Day 5), the miss rate is recorded as 24.75%±2.34% and the no-grasp rate is given as 34.69%±4.12%. Further, in series [2] (Day 1), the “activated population activity (peak activity minus baseline activity)” value came to 0.0218±0.0094, the “pairwise Hausdorff distance of trajectories” value turned out to be 0.7012±0.0594 cm and the “trial-to-trial population activity correlation (Pearson correlation coefficient)” value is on record as 0.12±0.07. In series [2] (Day 6), the “activated population activity (peak activity minus baseline activity)” value worked out at 0.0354±0.0080, the “pairwise Hausdorff distance of trajectories” value is reported as 0.6712±0.0659 cm and the “trial-to-trial population activity correlation (Pearson correlation coefficient)” value is 0.12±0.05.
Consider Trp-Met-Asp-Phe-NH2 [CCK4], for which the “average normalized fEPSP amplitude” value in series [3] (after HFS (50-60 min)) is on record as 118.89%±6.09%; in series [3] (before HFS (−10-0 min)) it was 100.28%±0.47%. For the same molecule, the success rate in series [4] (Day 1) was 19.17%±3.03%; in series [4] (Day 5, 0.45 mg/kg) it was 30.58%±4.18% and 30.51%±4.18%; in series [4] (Day 6), 31.50%±4.43%. Also, the miss rate is 25.47%±4.03% in series [4] (Day 1) and 13.13%±2.80 in series [4] (Day 5). The brain-blood barrier passage entry in series [4] (concluded from behavioural rescue after i.p. injection) was “could cross the brain-blood barrier”.
